The text below walks through data of patent publication US6440965B1, “Substituted pyrimidine derivatives, their preparation and their use in the treatment of neurodegenerative or neurological disorders of the central nervous system” (Krenitsky Pharmaceuticals, Inc., priority 1997, dated 2002).

One data set has as its system PC12 cells. In words: Screen for NGF-like activity in cultured PC12 cells (neurite outgrowth, potentiation of NGF). The data set is classed as cell-based, rat. The following applies: 2 days incubation, with or without a limiting concentration of NGF. How it is done: Cultured PC12 cells (rat adrenal pheochromocytoma from ATCC) have receptors for NGF. Responses include promotion of neurite outgrowth and elevation of choline acetyltransferase (ChAT) (L. A. Greene and A. S. Tischler, Cell Neurobiol., 3, 373 (1982)).
The following assay is substantially as described in H L White and P W Scates, Neurochem. Res., 16, 63 (1991). PC12 cells were cultured at 37° C. in DMEM supplemented with fetal bovine serum, horse serum, glutamine, penicillin, streptomycin and non-essential amino acids. Cultures were split 1:4 every 4 or 5 days. Exponentially dividing cells were plated in fresh medium on collagen-coated 12-well plastic dishes. After allowing one day for cell attachment, the medium was replaced with low serum medium, with or without test compounds and also with or without a limiting concentration of NGF, with each condition in triplicate. The medium may contain up to 0.1% ethanol, which was used as a solvent for most compounds being tested. Cells were examined daily for morphological changes using an Olympus IMT-2 inverted research microscope. After 2 days incubation with test compounds, cells and media were transferred to 1.5 mL Eppendorf tubes. Aliquots of 20 uL were reserved for cell counting and viability determination by trypan blue exclusion. The remaining cell suspensions were centrifuged, and the cell pellets were washed once in serum-free medium and finally resuspended in 30 uL of distilled water containing eserine, an inhibitor of acetylcholinesterase. The suspensions were stored at −80° C. until they were assayed for choline acetyltransferase. Compounds are judged NGF-like in this primary screen if they (1) increase the activity of choline acetyltransferase, (2) enhance NGF-stimulated neurite outgrowth or (3) potentiate and appear additive with the action of NGF itself.

Another data set has as its system working memory. The following applies: mice; cited from earlier work.
For a further data set, the system named is PC-12 cells. The following applies: cited from earlier work.

For `Nc1ncc(Oc2ccc(Cl)cc2)c(N2CCNCC2)n1`, the melting point is 93 to 95 °C.

For `Nc1ncc(Cc2ccc(Cl)cc2)c(NCCCCO)n1` [2-Amino-4-[2-(2-hydroxyethyl)ethylamino]-5-(4-chlorobenzyl)pyrimidine], the “NGF-like in vitro activity (ChAT increase, enhancement of NGF-stimulated neurite outgrowth and/or potentiation of NGF)” value in the data set on PC12 cells is “especially potent activities”.

In turn, `CC(=O)N1CCN(c2nc(N)ncc2Oc2ccc(Cl)cc2)CC1` showed a melting point of 153 to 157 °C.

Take `O=C(CCn1cnc2c(=O)[nH]cnc21)Nc1ccc(C(=O)O)cc1` [AIT-082, 4[[3-(1,6-dihydro-6-oxo-9-purin-9-yl)-1-oxopropyl]amino]benzoic acid]: in the data set with working memory, the “age induced working memory deficits” value is “restore age induced working memory deficits”. In addition, in the data set on PC-12 cells, the “NGF action in cultured PC-12 cells” value is reported as “enhance NGF action”.

Consider `Nc1ncc(Cc2ccc(Cl)cc2)c(N2CCC(O)CC2)n1` [2-Amino-5-(4-chlorobenzyl)-4-(4-hydroxypiperidino)pyrimidine], for which the “NGF-like in vitro activity (ChAT increase, enhancement of NGF-stimulated neurite outgrowth and/or potentiation of NGF)” value in the data set on PC12 cells is on record as “especially potent activities”. Still for that read-out and setting: as for `Nc1ncc(Oc2ccc(Cl)cc2)c(N2CCN(C=O)CC2)n1` [2-amino-5-(4-chlorophenoxy)-4-(4-formylpiperazino)pyrimidine], the entry is “especially potent activities”. As to `CN(C)c1nc(N)ncc1Cc1ccccc1`, the melting point lay within 181 to 182 °C.

For `Nc1ncc(Oc2ccc(Cl)cc2)c(N2CCN(CCO)CC2)n1`, the melting point is 121 to 123 °C. On the same count and under the same terms, as for `CC(C)(C)C(=O)OCCN1CCN(c2nc(N)ncc2Oc2ccc(Cl)cc2)CC1`, the figure is 123 to 125 °C.

The molecule `Cl.Nc1ncc(Oc2ccc(Cl)cc2)c(NCCOCCO)n1` had a melting point of 140 to 141 °C. The same measure, in the same setting: as for `Nc1ncc(Oc2ccc(Cl)cc2)c(N2CCOCC2)n1`, the figure is 138 to 140 °C.

With `CN1CCN(c2nc(N)ncc2Oc2ccc(Cl)cc2)CC1` [2-amino-5-(4-chlorophenoxy)-4-(4-methylpiperazino)pyrimidine], the “NGF-like in vitro activity (ChAT increase, enhancement of NGF-stimulated neurite outgrowth and/or potentiation of NGF)” value in the data set on PC12 cells was “especially potent activities”. Regarding `O=C(Nc1ccccc1)Nc1ncc(Oc2ccc(Cl)cc2)c(N2CCOCC2)n1`, the melting point was in the range of 229 to 231 °C.

By melting point is commonly meant the temperature, or range, at which the solid turns liquid.
